Measured values published in patent US11091512B2, “Modulation of antigen immunogenicity by deleting epitopes recognized by NKT cells” (Imnate Sarl, priority 2010, dated 2021).
“Also recorded” adds a separate entry of the source.

Experiments:
NKT cells [1] = test: CD1d tetramers loaded with FVIII peptides incubated with spleen CD4+ T cells of FVIII-immunized hemophilia A mice, Facs; type: cell-based; conditions: for binding of CD1d tetramers loaded with peptide: spleen CD4+ T cells of hemophilia A mice injected IV with FVIII 2 IU on 4 occasions, 15 aminoacid long peptides
Description: To determine whether these sequences could activate NKT cells in vivo, FVIII (2 IU) was injected intravenously to hemophilia A mice on 4 occasions separated by a 1-week interval. Hemophilia A mice produce no FVIII due to a stop codon introduced in the FVIII gene in exon 16.
Mice were sacrificed 10 days after the last injection, the spleen was removed and CD4+ T cells were prepared by magnetic bead sorting. NKT cells are characterized by expression of CD4 and recognition of antigen presented by CD1d molecule. A tetramer of CD1d was obtained from a commercial supplier and loaded with 15 aminoacid long FVIII peptides, which included peptides containing SEQ ID1, SEQ ID2 and SEQ ID3.
Hemophilia A mice were immunized with 2 IU Factor VIII on 4 occasions separated by one week. The spleen was then removed and CD4+ T cells were prepared by magnetic bead sorting. A fluorochrome-labeled tetramer of CD1d was obtained from a commercial supplier and loaded with 15 aminoacid long FVIII peptides, which included peptides containing SEQ ID1, ID2 and ID3. Loading was carried out at room temperature overnight in the dark.
Tetramers were then incubated for 30 minutes at 4° C. with the CD4+ T cell population and the cell suspension was analyzed by Facs.

hemophilia A mice = test: direct immunization of hemophilia A mice with peptides containing a CD1d motif; type: in vivo; conditions: direct immunization with peptide
Description: Hemophilia A mice were immunized 3 times subcutaneously with 50 μg of an equimolar mixture of peptides of SEQ ID1 (44pept) and peptide of SEQ ID2 (256pept) adsorbed on aluminum hydroxyde. A control group received physiological serum instead of peptides. Plasma was taken 10 days after the last immunization and assessed for the presence of anti-Factor VIII antibodies, using a direct binding assay. Briefly, Factor VIII (10 IU/ml) was insolubilized on polystyrene plates, which were washed and incubated with a 1/10 dilution of plasma. After a further washing, a HRP-labeled goat anti-mouse antiserum was added, followed by an enzyme substrate. Colour development was read as OD.

NKT cells [2] = test: human CD1d tetramers loaded with peptides, recognition by NKT cells; type: cell-based; conditions: Mal d 1 peptides
Description: (§1) Synthetic peptides corresponding to SEQ ID9 and SEQ ID10 were produced. Their capacity to activate NKT cells was determined in vitro using human dendritic cells derived from peripheral blood monocytes of an individual sensitized to Mal d 1. Dendritic cells loaded with each one of the two peptides were incubated in the presence of NKT cells obtained from the same individual by sorting peripheral lymphocytes using specific markers such as CD4 and NKG2D.
(§2) As for Mal d 1, human CD1d tetramers loaded with a synthetic peptide representing the motif identified in the polypeptide of […]

NKT cells [3] = test: activation of NKT cells in vitro by human dendritic cells loaded with peptide or polypeptide; type: cell-based
Description: as §1, §2

NKT cells [4] = test: human CD1d tetramers loaded with IgG peptides, peripheral blood CD4+ T cells of patients given a therapeutic antibody (facs); type: cell-based; conditions: patients injected with a therapeutic antibody during the previous 5 days
Description: Synthetic peptides corresponding to SEQ ID18, SEQ ID19 and SEQ ID20 were produced and used to load human CD1d tetramers as for the examples above (see for instance example 4 for allergen Der p 1). Peripheral blood cells were obtained by venous puncture of patients who had received an injection of a therapeutic antibody during the previous 5 days. CD4+ T cells were purified by magnetic bead sorting. The cells were then incubated with tetramers loaded with peptides of SEQ ID18, SEQ ID19 or SEQ ID20. Analysis by facs identifies a significant proportion of NKT cells (±10%) labeled by tetramers.

CD4+ NKT cells = test: intranasal Der p 1 in BALB/c mice, spleen CD4+ T cells stained with peptide-loaded CD1d tetramers (facs); type: in vivo; conditions: for percentage of CD4+ T cells stained with CD1d tetramers loaded with peptide: mice given natural sequence Der p 1 intranasally, 100 μg
Description: Peptides of SEQ ID13, SEQ ID14 and SEQ ID15 were synthesized and used to load CD1d tetramers.
BALB/c mice were submitted to intranasal administration of Der p 1, using 50 μl of saline containing 100 μg of Der p 1. This challenge procedure was repeated twice on three consecutive days at one-week interval. The mice were sacrificed 5 days after the last nasal instillation and the spleen was removed. CD4+ T cells were purified by magnetic bead sorting and incubated in the presence of the CD1d tetramers loaded with peptides of SEQ ID13, SEQ ID14 or SEQ ID15. By fluorescence-activated cell sorter (facs) determination, it was observed that a significant percentage of cells (±10%) were stained with the tetramers, identifying them as CD4+ NKT cells. It was therefore concluded that peptides of SEQ ID13, SEQ ID14 and SEQ ID15 were functional in binding to CD1d and in being recognized by NKT cells.
Next, a mutated form of Der p 1 was prepared by genetic engineering, in which the 3 aminoacid residues predicted to be in position P1 for CD binding of peptides of SEQ ID13, SEQ ID14 and SEQ ID15 were substituted by serine. The mutated Der p 1 (SEQ ID16) was used for nasal instillation as described above with Der p 1 in natural sequence (SEQ ID17).

NKT cells [5] = test: JAWS2 cells loaded with Der p 1, production of IFN-gamma and IL-4 as markers of NKT activation; type: cell-based; conditions: JAWS2 cells loaded with the protein; cells from mice immunized with natural sequence Der p 1
Description: CD4+ T cells obtained from the above experiments were incubated in culture medium in the presence of an antigen-presenting cell which expresses the CD1d molecule. […] JAWS2 cells were loaded with Der p 1 and presentation of Der p 1-derived epitopes by CD1d was evaluated by measuring the production of cytokines such as IFN-gamma and IL-4 as markers of NKT activation.
Further, mutated Der p 1 (SEQ ID16) was used to load JAWS2 cells and tested for its capacity to activate NKT cells. For this experiment, NKT cells were used as obtained from mice immunized with Der p 1 in either natural or mutated configuration. The production of IFN-gamma and IL-4 was taken as an indication of NKT activation.

[6] = dendritic cells and NKT cells of an individual sensitized to Mal d 1
[7] = alpha-gliadin polypeptide presented by antigen-presenting dendritic cells, same procedure as for Mal d 1

Q: How did the “% of NKT cells recognizing peptide-loaded CD1d tetramers” value (NKT cells [1]; FIG. 1, CD4+ T cells of hemophilia A mice immunized with Factor VIII) turn out when “FCHISSH (listed as Homo sapiens) [SEQ ID1, FVIII A1 domain aminoacids 309-315 CD1d motif; tested as 15 aminoacid long FVIII peptide containing it]” was run?
A: Its value is “Up to 45%”.

Q: And the “binding of CD1d tetramers loaded with peptide” value (NKT cells [1])?
A: Its value is “Significant binding”.

Q: And the “activation of NKT cells” value (hemophilia A mice)?
A: Its value is “sufficient as to elicit the activation of NKT cells; also recorded: Prominent activation”.

Q: With “FHAINGY [SEQ ID3, FVIII A3 domain aminoacids 1918-1924 CD1d motif; tested as 15 aminoacid long FVIII peptide containing it]” as the molecule, how does the “binding of CD1d tetramers loaded with peptide” value (NKT cells [1]) read?
A: The value was “Significant binding”.

Q: What about the “activation of NKT cells” value (hemophilia A mice) of the same molecule?
A: Its value is “sufficient as to elicit the activation of NKT cells”.

Q: Which results are given for “FKLIESY (listed as Malus domestica) [SEQ ID9, synthetic peptide, aminoacids 144-150 of Mal d 1]”?
A: recognition of peptide-loaded human CD1d tetramers by NKT cells (NKT cells [2]): recognized by a significant proportion of NKT cells; activation of NKT cells (NKT cells [3]; [6]): activated a significant proportion of NKT cells

Q: For “FRVVSVL (listed as Homo sapiens) [SEQ ID19, CH2 of IgG2 and IgG3]”, which “proportion of NKT cells labeled by tetramers” value (shortened to “proportion … by tetramers”) (NKT cells [4]) is on record?
A: The value was roughly 10%.

Q: Which “percentage of CD4+ T cells stained with CD1d tetramers loaded with peptide” value (“percentage of CD4+ T cells stained” for short) (CD4+ NKT cells) does the source give for “FSGVAAT (listed as Dermatophagoides pteronyssinus) [SEQ ID13, aminoacids 38-44 of Der p 1]” here?
A: The value was roughly 10%.

Q: “FWKVQHH (listed as Homo sapiens) [SEQ ID2, FVIII A3 domain aminoacids 1816-1822 CD1d motif; tested as 15 aminoacid long FVIII peptide containing it]” was tested. Which “binding of CD1d tetramers loaded with peptide” value (NKT cells [1]) did it give?
A: The value was “Significant binding”.

Q: And the “activation of NKT cells” value (hemophilia A mice)?
A: The value was “sufficient as to elicit the activation of NKT cells”.

Q: “HEALHNH (listed as Homo sapiens) [SEQ ID20, CH3 loop of IgG1, IgG2 and IgG4]” was tested. Which “proportion … by tetramers” value (NKT cells [4]) did it give?
A: Its value is roughly 10%.

Q: Which “percentage of CD4+ T cells stained” value (CD4+ NKT cells) does the source give for “HSAIAAVI (listed as Dermatophagoides pteronyssinus) [SEQ ID14, aminoacids 135-141 of Der p 1]” here?
A: The value was roughly 10%.

Q: With “SKLIESS (listed as Malus domestica) [SEQ ID10, synthetic peptide of Mal d 1 motif with F144S and Y150S mutations]” as the molecule, how does the “proportion of NKT cells recognizing peptide-loaded human CD1d tetramers” value (NKT cells [2]) read?
A: Its value is “less than 1%”.

Q: What about the “activation of NKT cells” value (NKT cells [3]; [6]) of the same molecule?
A: The value was “did not”.

Q: “YPYVVIL (listed as Dermatophagoides pteronyssinus) [SEQ ID15, aminoacids 216-222 of Der p 1]” was tested. Which “percentage of CD4+ T cells stained” value (CD4+ NKT cells) did it give?
A: Its value is roughly 10%.

Q: For “YRVVSVL (listed as Homo sapiens) [SEQ ID18, CH2 of IgG1 and IgG4]”, which “proportion … by tetramers” value (NKT cells [4]) is on record?
A: Its value is roughly 10%.

B1: SEQ ID11: alpha-gliadin polypeptide, natural sequence with CD1d binding motif (protein, listed as Homo sapiens)
chain: MVRVPVPQLQPQNPSQQQPQEQVPLVQQQQFPGQQQPFPPQQPYPQPQPFPSQQPYLQLQPFPQPQLPYPQPQLPYPQPQLPYPQPQPFRPQQPYPQSQPQYSQPQQPISQQQQQQQQQQQQKQQQQQQQQILQQILQQQLIPCRDVVLQQHSIAYGSSQVLQQSTYQLVQQLCCQQLWQIPEQSRCQAIHNVVHAIILHQQQQQQQQQQQQPLSQVSFQQPQQQYPSGQGSFQPSQQNPQAQGSVQPQQLPQFEEIRNLALETLPAMCNVYIPPYCTIAPVGIFGTNYR
Q: Which “activation of NKT cells” value (NKT cells [3]; [7]) does the source give for B1 here?
A: The value was “activated a significant proportion of NKT cells”.

B2: SEQ ID12: mutated form of alpha-gliadin in which the F residue of the motif was substituted by S (protein, listed as Homo sapiens)
chain: MVRVPVPQLQPQNPSQQQPQEQVPLVQQQQFPGQQQPFPPQQPYPQPQPFPSQQPSLQLQPFPQPQLPYPQPQLPYPQPQLPYPQPQPFRPQQPYPQSQPQYSQPQQPISQQQQQQQQQQQQKQQQQQQQQILQQILQQQLIPCRDVVLQQHSIAYGSSQVLQQSTSQLVQQLCCQQLWQIPEQSRCQAISNVVHAIILHQQQQQQQQQQQQPLSQVSFQQPQQQYPSGQGSFQPSQQNPQAQGSVQPQQLPQSEEIRNLALETLPAMCNVYIPPSCTIAPVGIFGTNYR
Q: Which “activation of NKT cells” value (NKT cells [3]; [7]) does the source give for B2 here?
A: The value was “failed to do so”.

B3: Der p 1: cysteine protease, main allergen of house dust mite D. pteronyssinus, natural sequence (protein, listed as Dermatophagoides pteronyssinus)
chain: ETNACSINGNAPAEIDLRQMRTVTPIRMQGGCGSCWAFSGVAATESAYLAYRNQSLDLAEQELVDCASQHGCHGDTIPRGIEYIQHNGVVQESYYRYVAREQSCRRPNAQRFGISNYCQIYPPNVNKIREALAQTHSAIAVIIGIKDLDAFRHYDGRTIIQRDNGYQPNYHAVNIVGYSNAQGVDYWIVRNSWDTNWGDNGYGYFAANIDLMMIEEYPYVVIL
Q: Which “NKT activation (production of IFN-gamma and IL-4)” value (NKT cells [5]) does the source give for B3 here?
A: The value was “significant production of cytokines”.

B4: SEQ ID16: mature Der p 1 with P1 anchoring residues F38S, H135S and Y216S mutated (protein, listed as Dermatophagoides pteronyssinus)
chain: ETNACSINGNAPAEIDLRQMRTVTPIRMQGGCGSCWASSGVAATESAYLAYRNQSLDLAEQELVDCASQHGCHGDTIPRGIEYIQHNGVVQESYYRYVAREQSCRRPNAQRFGISNYCQIYPPNVNKIREALAQTSSAIAVIIGIKDLDAFRHYDGRTIIQRDNGYQPNYHAVNIVGYSNAQGVDYWIVRNSWDTNWGDNGYGYFAANIDLMMIEESPYVVIL
Q: For B4, which “binding of CD4+ T cell splenocytes to tetramers loaded with peptide of SEQ ID13, SEQ ID14 or SEQ ID15” value (CD4+ NKT cells; mice given the protein by nasal instillation) is on record?
A: The value was “no significant binding”.

Q: What about the “NKT activation (production of IFN-gamma and IL-4)” value (NKT cells [5]) of the same molecule?
A: The value was “failed to be activated”.
